The values below come from patent publication US4191753A, “Anti-hypertensive peptide analogs” (University of Miami, priority 1978, dated 1980).

Structures are written as SMILES. Where a SMILES comes first, the peptide text is derived from it.

The conditions of data set [1]: cited from earlier work.
The subject of data set [2] is patients. To be noted: cited from earlier work.
Data set [3] has as its system patients with hypertension. To be noted: cited from earlier work.
The target of data set [4] is T1, human urinary angiotensin converting enzyme (Homo sapiens, UniProt P12821).
T1 construct: human urinary angiotensin converting enzyme, prepared as described by Ryan, J., et al; from tissue; host or cells: human urine
T1 sequence (P12821 30-1306): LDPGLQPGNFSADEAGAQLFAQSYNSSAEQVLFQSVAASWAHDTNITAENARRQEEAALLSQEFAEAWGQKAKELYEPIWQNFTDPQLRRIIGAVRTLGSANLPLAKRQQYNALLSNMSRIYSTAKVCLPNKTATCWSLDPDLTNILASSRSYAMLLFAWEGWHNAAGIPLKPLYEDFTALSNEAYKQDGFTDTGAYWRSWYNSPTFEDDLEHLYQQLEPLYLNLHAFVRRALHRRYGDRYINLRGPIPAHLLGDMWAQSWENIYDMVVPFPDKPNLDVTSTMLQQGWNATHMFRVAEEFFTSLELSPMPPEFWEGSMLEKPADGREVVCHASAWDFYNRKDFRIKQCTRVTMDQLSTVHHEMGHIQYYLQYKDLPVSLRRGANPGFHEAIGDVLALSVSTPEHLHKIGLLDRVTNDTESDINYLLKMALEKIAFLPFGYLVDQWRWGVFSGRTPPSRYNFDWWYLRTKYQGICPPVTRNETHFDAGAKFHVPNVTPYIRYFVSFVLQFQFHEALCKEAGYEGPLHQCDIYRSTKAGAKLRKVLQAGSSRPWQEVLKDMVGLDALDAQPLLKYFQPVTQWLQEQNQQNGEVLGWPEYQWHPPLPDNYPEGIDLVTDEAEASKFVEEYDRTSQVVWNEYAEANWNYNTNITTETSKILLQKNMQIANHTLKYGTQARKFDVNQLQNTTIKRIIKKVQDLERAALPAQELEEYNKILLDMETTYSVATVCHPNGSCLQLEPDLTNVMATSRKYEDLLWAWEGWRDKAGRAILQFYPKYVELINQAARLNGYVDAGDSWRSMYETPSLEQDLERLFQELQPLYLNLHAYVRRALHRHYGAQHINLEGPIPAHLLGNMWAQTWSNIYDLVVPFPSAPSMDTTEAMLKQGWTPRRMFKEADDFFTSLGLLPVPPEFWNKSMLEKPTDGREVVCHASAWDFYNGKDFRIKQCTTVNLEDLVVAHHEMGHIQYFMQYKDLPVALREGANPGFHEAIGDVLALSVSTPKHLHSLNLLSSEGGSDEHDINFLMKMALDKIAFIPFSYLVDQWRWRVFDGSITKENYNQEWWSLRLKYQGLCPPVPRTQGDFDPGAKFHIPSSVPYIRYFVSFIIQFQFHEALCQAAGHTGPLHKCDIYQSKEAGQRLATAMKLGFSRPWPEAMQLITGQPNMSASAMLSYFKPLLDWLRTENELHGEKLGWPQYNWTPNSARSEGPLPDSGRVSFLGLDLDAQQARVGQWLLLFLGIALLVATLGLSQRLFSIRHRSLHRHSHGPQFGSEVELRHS
Nature of the data set: Inhibition of hydrolysis of [3H]benzoyl-Gly-His-Leu by human urinary angiotensin converting enzyme. To be noted: [3H]benzoyl-Gly-His-Leu 100 μM (approximately one-half of Km), 37° C., 15 min., pH 8.0; read-out: I50. The class given is biochemical. On the procedure:
ΔPro^3 -BPP9a, ΔPro^5 -BPP9a, ΔPro^8 -BPP9a, and ΔPro^9 -BPP9a were each compared with BPP9a (<Glu-Trp-Pro-Arg-Pro-Gln-Ile-Pro-Pro; also known as SQ 20,881) for their abilities to inhibit the hydrolysis of [^3 H]benzoyl-Gly-His-Leu by human urinary angiotensin converting enzyme, prepared as described by Ryan, J., et al., Tissue and Cell 10, 555 (1978). A standard amount of enzyme (the amount required to hydrolyze 8% of substrate during the course of incubation at 37° C. for 15 min.) was incubated with [^3 H]benzoyl-Gly-His-Leu in a final reaction volume of 100 μl or 110 μl. The reaction mixture contained 0.05 M Hepes buffer, pH 8.0, 0.1 M NaCl, 0.75 M Na2 SO4, [^3 H]-benzoyl-Gly-His-Leu (100 μM at 10 mCi/mmole, enzyme and varying concentrations of inhibitor, from […]. Net enzyme activity was measured in terms of the rate of formation of [^3 H]benzoyl-glycine (^3 H-hippuric acid). Under the conditions of the assay, the initial substrate concentration is approximately one-half of Km. Results are expressed as I50 values, i.e., the concentration of a given inhibitor required to reduce enzyme activity by half.
These factors include the source of enzyme, its purity, the substrate used and its concentration, and the composition of the assay buffer. […] For example, Cushman, et al., supra, reported an I50 value for BPP9a of approximately 1000 nM, whereas Dorer, F.E., et al., Biochim. Biophys. Acta 429, 220 (1976) reported I50 values in the range 12nM-15nM. The sources of such variations are not known.

Data set [5] has as its target T2, ACE (Oryctolagus cuniculus, UniProt P12822).
T2 sequence (P12822 34-1310): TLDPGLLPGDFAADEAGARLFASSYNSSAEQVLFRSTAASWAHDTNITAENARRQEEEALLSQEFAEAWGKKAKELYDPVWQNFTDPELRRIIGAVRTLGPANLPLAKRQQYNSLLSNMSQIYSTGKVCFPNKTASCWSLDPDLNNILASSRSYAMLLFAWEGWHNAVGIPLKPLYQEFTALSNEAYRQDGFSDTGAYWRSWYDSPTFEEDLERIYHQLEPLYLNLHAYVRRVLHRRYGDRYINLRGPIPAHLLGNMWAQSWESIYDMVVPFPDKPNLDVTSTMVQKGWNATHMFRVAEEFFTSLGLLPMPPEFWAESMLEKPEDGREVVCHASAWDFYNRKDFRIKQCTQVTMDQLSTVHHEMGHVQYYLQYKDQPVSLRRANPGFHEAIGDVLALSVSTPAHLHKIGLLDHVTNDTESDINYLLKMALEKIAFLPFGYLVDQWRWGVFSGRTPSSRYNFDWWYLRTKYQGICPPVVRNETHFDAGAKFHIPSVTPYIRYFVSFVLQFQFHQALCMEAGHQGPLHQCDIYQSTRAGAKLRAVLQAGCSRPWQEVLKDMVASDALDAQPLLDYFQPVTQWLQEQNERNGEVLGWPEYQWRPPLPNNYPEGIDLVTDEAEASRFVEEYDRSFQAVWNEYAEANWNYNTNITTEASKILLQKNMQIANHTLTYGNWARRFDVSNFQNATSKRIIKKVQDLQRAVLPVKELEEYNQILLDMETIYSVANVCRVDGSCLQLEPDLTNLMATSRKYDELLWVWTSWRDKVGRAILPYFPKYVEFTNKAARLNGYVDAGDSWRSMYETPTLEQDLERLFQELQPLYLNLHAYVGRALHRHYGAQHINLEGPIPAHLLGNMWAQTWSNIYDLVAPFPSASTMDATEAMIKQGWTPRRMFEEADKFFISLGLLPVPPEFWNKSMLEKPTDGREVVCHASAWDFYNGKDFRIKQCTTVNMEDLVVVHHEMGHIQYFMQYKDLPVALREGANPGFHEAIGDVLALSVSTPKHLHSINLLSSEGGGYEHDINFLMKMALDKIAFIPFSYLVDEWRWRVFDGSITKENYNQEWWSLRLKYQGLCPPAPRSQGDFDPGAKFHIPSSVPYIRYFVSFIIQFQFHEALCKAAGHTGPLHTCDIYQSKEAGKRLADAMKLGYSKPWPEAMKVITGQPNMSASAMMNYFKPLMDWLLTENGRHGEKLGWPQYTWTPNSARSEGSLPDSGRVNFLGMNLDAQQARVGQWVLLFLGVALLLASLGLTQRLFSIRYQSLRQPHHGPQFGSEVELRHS
The conditions noted are these: read-out: I50 reported by Cushman, et al.; literature value; cited from earlier work.

Data set [6] has as its target ACE (Homo sapiens, UniProt P12821). The experiment in a line: biochemical.
The subject of data set [7] is guinea pigs. The experiment in a line: Mean arterial blood pressure of guinea pigs anesthetized with pentobarbital. The data set is classed as in vivo, guinea pig. The conditions noted are these: single intravenous injection, 2 mg; for ill effects in test animals: blood pressure reduced to shock levels; for abnormalities in the electrocardiogram: Lead II monitored. As for the experimental part: ΔPro^3 -BPP9a and ΔPro^5 -BPP9a were tested for their ability to reduce mean arterial blood pressure of guinea pigs anesthetized with pentobarbital, an anesthetic thought to activate the renin-angiotensin system. Female guinea pigs (500-700 g body wgt.) of the Ft. Detrick-Hartley strain were injected intraperitoneally with pentobarbital, 30 mg/kg. Tracheostomy was performed, and the animals were ventilated with a small animal respirator. A polyethylene cannula was inserted into a femoral vein, and heparin, 1,000 units, was injected. A second cannula was inserted into a femoral artery for measurement of arterial blood pressure. The arterial cannula was connected to a pressure transducer, and the transducer was connected to a polygraph. Lead II of the electrocardiogram was monitored continuously.
Each of three guinea pigs received a single intravenous injection of ΔPro^3 -BPP9a, 2 mg in 0.25 ml of 0.9% (w/v) NaCl. On average, mean arterial blood pressure fell by 57.2% (81.7 mmHg to 35 mmHg). The maximum reduction was achieved within 15 sec. of injection. Each of seven guinea pigs received a single intravenous injection of ΔPro^5 -BPP9a, 2 mg in 0.25 ml of saline.

Chain of ACE (Homo sapiens, UniProt P12821) (P12821 30-1306, species assumed): as the sequence (P12821 30-1306) above

For the compound `C[C@H](CS)C(=O)N1CCCC1C(=O)O` (stereo in doubt) [SQ 14,225, D-2-methyl-3-mercaptopropanoyl-L-proline], the stability in solution result in data set [1] is reported as “instability of the drug in solution due to disulfide dimer formation”. In addition, the “patients known to benefit from ACE inhibitors who respond adversely” value in data set [2] (human, in vivo) was at most 11%. In addition, the oral effectiveness entry in data set [2] (oral) is on record as “effective orally”.

With `CC[C@H](C)[C@H](NC(=O)[C@H](CCC(N)=O)NC(=O)[C@@H]1CCCN1C(=O)[C@H](CCCNC(=N)N)NC(=O)[C@@H]1CCCN1C(=O)[C@H](Cc1c[nH]c2ccccc12)NC(=O)[C@@H]1CCC(=O)N1)C(=O)N1CCC[C@H]1C(=O)N1CCC[C@H]1C(=O)O` [BPP9a, <Glu-Trp-Pro-Arg-Pro-Gln-Ile-Pro-Pro], the “side reactions of the type observed with SQ 14,225, in clinical use of BPP9a” value in data set [3] is on record as “have not been encountered previously”. In addition, the IC50 in data set [4] is 28 nM; in data set [5], about 1000 nM; in data set [6] it was about 28 nM.

`NC(N)=NCCC[C@H](NC(=O)[C@H](Cc1ccccc1)NC(=O)[C@@H]1CCCN1C(=O)[C@H](CO)NC(=O)[C@H](Cc1ccccc1)NC(=O)CNC(=O)[C@@H]1CCCN1C(=O)[C@@H]1CCCN1C(=O)[C@@H](N)CCCN=C(N)N)C(=O)O` [bradykinin, ArgProProGlyPheSerProPheArg] (H-RPPGFSPFR-OH) gave an IC50 in data set [6] of about 500 nM.

Consider `CC[C@H](C)[C@H](NC(=O)[C@H](CCC(N)=O)NC(=O)[C@@H]1CCCN1C(=O)[C@H](CCCNC(=N)N)NC(=O)[C@@H]1C=CCN1C(=O)[C@H](Cc1c[nH]c2ccccc12)NC(=O)[C@@H]1CCC(=O)N1)C(=O)N1CCC[C@H]1C(=O)N1CCC[C@H]1C(=O)O` [ΔPro^3 -BPP9a, <Glu-Trp-ΔPro-Arg-Pro-Gln-Ile-Pro-Pro], for which the IC50 in data set [4] turned out to be 0.9 nM. In addition, in data set [7], the “increase in heart rate” value is listed as 0-10%, the “ill effects in test animals” value was “no ill effects” and the “abnormalities in the electrocardiogram” value is “no abnormalities were observed”.

As for `CC[C@H](C)[C@H](NC(=O)[C@H](CCC(N)=O)NC(=O)[C@@H]1C=CCN1C(=O)[C@H](CCCNC(=N)N)NC(=O)[C@@H]1CCCN1C(=O)[C@H](Cc1c[nH]c2ccccc12)NC(=O)[C@@H]1CCC(=O)N1)C(=O)N1CCC[C@H]1C(=O)N1CCC[C@H]1C(=O)O` [ΔPro^5 -BPP9a, <Glu-Trp-Pro-Arg-ΔPro-Gln-Ile-Pro-Pro], in data set [4], the IC50 was 0.9 nM. For the same compound, in data set [7], the “increase in heart rate” value was 0-10%, the “ill effects in test animals” value is given as “no ill effects” and the “abnormalities in the electrocardiogram” value is “no abnormalities were observed”.

As to `CC[C@H](C)[C@H](NC(=O)[C@H](CCC(N)=O)NC(=O)[C@@H]1CCCN1C(=O)[C@H](CCCNC(=N)N)NC(=O)[C@@H]1CCCN1C(=O)[C@H](Cc1c[nH]c2ccccc12)NC(=O)[C@@H]1CCC(=O)N1)C(=O)N1CC=C[C@H]1C(=O)N1CCC[C@H]1C(=O)O` [ΔPro^8 -BPP9a, <Glu-Trp-Pro-Arg-Pro-Gln-Ile-ΔPro-Pro], the IC50 in data set [4] was 60 nM.

Turning to `CC[C@H](C)[C@H](NC(=O)[C@H](CCC(N)=O)NC(=O)[C@@H]1CCCN1C(=O)[C@H](CCCNC(=N)N)NC(=O)[C@@H]1CCCN1C(=O)[C@H](Cc1c[nH]c2ccccc12)NC(=O)[C@@H]1CCC(=O)N1)C(=O)N1CCC[C@H]1C(=O)N1CC=C[C@H]1C(=O)O` [ΔPro^9 -BPP9a, <Glu-Trp-Pro-Arg-Pro-Gln-Ile-Pro-ΔPro], in data set [4], the IC50 turned out to be 0.15 nM.
